Data from US20160378909A1, “PROCESS FOR IDENTIFYING CULTURE CONDITIONS FOR A CELL OR ORGANISM” (GLAXOSMITHKLINE BIOLOGICALS SA, priority 2013, published 2016).
Where a name gives a salt, the structure may show the parent alone. Read-outs that look alike come from different tables or passages of the source.

Test system: Bordetella pertussis
Assay: microbe, parasite or virus in culture
Assay type: cell-based
Settings: for activity at 2000 µM / activity at 1330 µM / activity at 0.12 µg/mL / activity at 1.2 µg/mL / activity at 2.8 µg/mL / activity at 28 µg/mL / activity at 20000 µM / activity at 0.2 µg/mL / activity at 2 µg/mL / activity at 1 µg/mL / activity at 10 µg/mL: Bordetella pertussis
Method: Cells were harvested by centrifugation, washed twice with NaCl 0.9% (w/v), and resuspended in fresh medium (de novo minimal CDM; see composition in Table 1) at a theoretical OD650 nm of 0.5, as calculated from the OD650 nm of the culture before harvest. 20 μl of this cell suspension were used to inoculate each well of a 96-well microtiter plate filled with 180 μl of de novo minimal CDM. Only the inner wells of the plate were used for cultures, in order to minimize evaporation, and two controls were included, in which the supplement solution was replaced with water.
The plate was then incubated for 7 days at 35° C. in a Biotek Synergy H1 reader with constant shaking, and growth was automatically monitored every 10 minutes as OD650 nm.
The relative growth yield and growth rate for each supplement was then averaged over the three independent repeats, and the standard deviation was calculated.

[1] = 168 h, read-out: Relative yield Average, 2 mM in medium, max OD650 nm relative to water controls
[2] = read-out: Relative growth rate Average, 2 mM in medium, first generation, relative to water controls
[3] = 10 mg/L in medium, first generation, relative to water controls
[4] = 168 h, read-out: Relative yield Average, 20 mM in medium, max OD650 nm relative to water controls

O=C[O-].[Na+] [Sodium formate]
Relative growth rate Average (2 mM in medium, first generation, relative to water controls): 97.36%
Relative yield Average (2 mM in medium, max OD650 nm relative to water controls): 143.35%
Relative growth rate Average (20 mM in medium, first generation, relative to water controls): 89.12%
Relative yield Average (20 mM in medium, max OD650 nm relative to water controls): 168.28%

CC(=O)C(=O)O [Sodium pyruvate]
activity at 2000 µM [1]: < 95%
activity at 2000 µM [2]: < 95%

Calcium pantothenate
Relative growth rate Average (1 mg/L in medium, first generation, relative to water controls): 102.18%
Relative yield Average (1 mg/L in medium, max OD650 nm relative to water controls): 106.59%
Relative growth rate Average [3]: 102.47%
Relative yield Average (10 mg/L in medium, max OD650 nm relative to water controls): 98.99%

CC(C)C[C@H](N)C(=O)O [L-Leucine]
activity at 1330 µM (168 h, read-out: Relative yield Average, 1.33 mM in medium, max OD650 nm relative to water controls): 95 to 105%
activity at 1330 µM (read-out: Relative growth rate Average, 1.33 mM in medium, first generation, relative to water controls): 95 to 105%

Nc1nc(=O)c2nc(CNc3ccc(C(=O)N[C@@H](CCC(=O)O)C(=O)O)cc3)cnc2[nH]1 [Folate]
activity at 0.12 µg/mL (168 h, read-out: Relative yield Average, 0.12 mg/L in medium, max OD650 nm relative to water controls): > 105%
activity at 1.2 µg/mL (168 h, read-out: Relative yield Average, 1.2 mg/L in medium, max OD650 nm relative to water controls): 95 to 105%
activity at 0.12 µg/mL (read-out: Relative growth rate Average, 0.12 mg/L in medium, first generation, relative to water controls): 95 to 105%
activity at 1.2 µg/mL (read-out: Relative growth rate Average, 1.2 mg/L in medium, first generation, relative to water controls): 95 to 105%

O[C@H]1[C@H](O)[C@@H](O)[C@H](O)[C@@H](O)[C@H]1O [Inositol]
activity at 2.8 µg/mL (168 h, read-out: Relative yield Average, 2.8 mg/L in medium, max OD650 nm relative to water controls): 95 to 105%
activity at 28 µg/mL (168 h, read-out: Relative yield Average, 28 mg/L in medium, max OD650 nm relative to water controls): 95 to 105%
activity at 2.8 µg/mL (read-out: Relative growth rate Average, 2.8 mg/L in medium, first generation, relative to water controls): 95 to 105%
activity at 28 µg/mL (read-out: Relative growth rate Average, 28 mg/L in medium, first generation, relative to water controls): 95 to 105%

NCC(=O)O [Glycine]
activity at 2000 µM [1]: 95 to 105%
activity at 2000 µM [2]: > 105%
activity at 20000 µM (read-out: Relative growth rate Average, 20 mM in medium, first generation, relative to water controls): > 105%

OB(O)O [Supplement H3BO3, H3BO3]
Relative growth rate Average (2.36 mg/L in medium, first generation, relative to water controls): 93.25%
Relative yield Average (2.36 mg/L in medium, max OD650 nm relative to water controls): 96.86%

O=C(O)[C@@H]1CCCN1 [L-Proline]
activity at 2000 µM [1]: 95 to 105%
activity at 20000 µM [4]: > 105%

C[C@@H](O)[C@H](N)C(=O)O [L-Threonine]
activity at 2000 µM [1]: 95 to 105%
activity at 20000 µM [4]: < 95%
activity at 2000 µM [2]: < 95%

[I-].[K+] [Potassium iodide]
Relative growth rate Average (0.47 mg/L in medium, first generation, relative to water controls): 94.69%
Relative yield Average (0.47 mg/L in medium, max OD650 nm relative to water controls): 101.89%
Relative growth rate Average (4.7 mg/L in medium, first generation, relative to water controls): 99.91%
Relative yield Average (4.7 mg/L in medium, max OD650 nm relative to water controls): 104.26%

Cc1ncc(CO)c(CO)c1O [Pyridoxine]
activity at 0.2 µg/mL (168 h, read-out: Relative yield Average, 0.2 mg/L in medium, max OD650 nm relative to water controls): 95 to 105%
activity at 2 µg/mL (168 h, read-out: Relative yield Average, 2 mg/L in medium, max OD650 nm relative to water controls): 95 to 105%
activity at 0.2 µg/mL (read-out: Relative growth rate Average, 0.2 mg/L in medium, first generation, relative to water controls): 95 to 105%
activity at 2 µg/mL (read-out: Relative growth rate Average, 2 mg/L in medium, first generation, relative to water controls): 95 to 105%

CC(=O)[O-].[Na+] [Sodium acetate]
Relative growth rate Average (5 mM in medium, first generation, relative to water controls): 101.45%
Relative yield Average (5 mM in medium, max OD650 nm relative to water controls): 99.15%
Relative growth rate Average (50 mM in medium, first generation, relative to water controls): 71.40%
Relative yield Average (50 mM in medium, max OD650 nm relative to water controls): 152.20%

Cc1ncc(C[n+]2csc(CCO)c2C)c(N)n1 [Thiamine HCl]
activity at 1 µg/mL (168 h, read-out: Relative yield Average, 1 mg/L in medium, max OD650 nm relative to water controls): 95 to 105%
activity at 10 µg/mL (168 h, read-out: Relative yield Average, 10 mg/L in medium, max OD650 nm relative to water controls): > 105%
activity at 1 µg/mL (read-out: Relative growth rate Average, 1 mg/L in medium, first generation, relative to water controls): 95 to 105%
activity at 10 µg/mL (read-out: Relative growth rate Average, 10 mg/L in medium, first generation, relative to water controls): > 105%

C[C@H](N)C(=O)O [L-Alanine]
activity at 2000 µM [1]: 95 to 105%
activity at 2000 µM [2]: > 105%

[Cl-].[Cl-].[Zn+2] [ZnCl2]
Relative growth rate Average [3]: 103.27%
